Source: patent US11186566B2, “Modulator of cystic fibrosis transmembrane conductance regulator, pharmaceutical compositions, methods of treatment, and process for making the modulator” (Vertex Pharmaceuticals Incorporated, priority 2016, dated 2021)
Read-outs that look alike come from different tables or passages of the source.

Experiments:
human PXR = human PXR (Homo sapiens (Human), UniProt O75469); experiment: PXR assay (PXR mediated CYP3A4 induction, DPX-2 cell line); assay type: cell-based; details: DPX-2 cells, 48 hours, 0.1 to 60 μM
Description: 5D. Experimental Protocol for PXR Assay
The propensity for PXR mediated CYP3A4 induction is assessed using the DPX-2 cell line in vitro. This cell line, which has been licensed from Puracyp Inc. was derived from HepG2 cells and has been stably transfected with genes encoding human PXR as well as a modified luciferase reporter linked to the CYP3A4 promoter region and related distal and proximal enhancers.
The assay is run in 384 well format and each test article is administered in 11 doses ranging from 0.1 to 60 μM. On day 1, DPX-2 cells which have previously been expanded in-house and cryopreserved are thawed and seeded in tissue culture plates. The following day, media is changed and cells are cultured in media containing test article, vehicle control or the positive control compound, the clinically validated CYP3A4 inducer rifampicin. Cells are cultured in the presence of test article for 48 hours and then cell viability is assessed using fluorescence based assay (Cell Titer-Fluor, Promega) with an EnVision Plate Reader (PerkinElmer). Subsequently, CYP3A4 transactivation, which is proportional to luciferase activity, is measured by reading luminescense using the Promega One-Glo reagent system using the same plate reader.
Data processing within the Genedata software package allows reporting of max fold induction compared to vehicle control, an EC50 value for CYP3A4 inducers and an 11 point-dose response curve.

F508del-CFTR = F508del-CFTR (Homo sapiens (Human), UniProt P13569, DEL508-508); experiment: Membrane potential optical (fluorescent voltage sensing dye, FLIPR III) HTS assay for F508del-CFTR modulators; assay type: cell-based
From the text: Membrane Potential Optical Methods for Assaying Properties of F508del-CFTR Modulators
The assay utilizes fluorescent voltage sensing dyes to measure changes in membrane potential using a fluorescent plate reader (e.g., FLIPR III, Molecular Devices, Inc.) as a readout for increase in functional F508del in NIH 3T3 cells.
5A-A1. Identification of F508Del-CFTR Modulators
To identify modulators of F508del, a fluorescence based HTS assay format was developed. This HTS assay utilizes fluorescent voltage sensing dyes to measure changes in membrane potential on the FLIPR III as a measurement for increase in gating (conductance) of F508del NIH 3T3 cells.
(in mM) NaCl 160, KCl 4.5, CaCl2 2, MgCl2 1, HEPES 10, pH 7.4 with NaOH, Glucose 10.
Chloride salts in Bath Solution #1 (above) are substituted with gluconate salts.
NIH3T3 mouse fibroblasts stably expressing F508del are used for optical measurements of membrane potential. The cells are maintained at 37° C. in 5% CO2 and 90% humidity in Dulbecco's modified Eagle's medium supplemented with 2 mM glutamine, 10% fetal bovine serum, 1×NEAA, β-ME, 1×pen/strep, and 25 mM HEPES in 175 cm^2 culture flasks. For all optical assays, the cells were seeded at 12,000 cells/well in 384-well matrigel-coated plates and cultured for 18-24 hrs at 37° C. for the potentiator assay. For the correction assays, the cells are cultured at 37° C. with and without compounds for 18-24 hours.

Rat IV and PO PK studies = assay type: in vivo, male Sprague-Dawley rats; details: male, Sprague-Dawley, plasma; for bioavailability / AUC: 3 mg/kg, oral; for bioavailability: read-out: Rat po % F; for clearance: intravenous, 3.0 mg/kg, read-out: Rat iv CL
Description: 5C. Experimental Protocol for Rat IV and PO PK Studies
[…] […] Analyses of plasma and dose preparations were performed using LC/MS/MS.
Plasma concentration-time profiles of the tested compound in Sprague-Dawley rats at scheduled (nominal) sampling times were analyzed by noncompartmental pharmacokinetic methods using PK function within Watson LIMS software, Version 7.4.2 (Thermo Scientific Inc, Waltham, Mass.). AUC values were calculated using the linear trapezoidal rule.

[1] = F508del NIH 3T3 cells, assay 5A-A1, read-out: CFTRdF508 EC50
[2] = Table 9, read-out: CFTR dF508 EC50

Chain of human PXR (O75469 whole entry): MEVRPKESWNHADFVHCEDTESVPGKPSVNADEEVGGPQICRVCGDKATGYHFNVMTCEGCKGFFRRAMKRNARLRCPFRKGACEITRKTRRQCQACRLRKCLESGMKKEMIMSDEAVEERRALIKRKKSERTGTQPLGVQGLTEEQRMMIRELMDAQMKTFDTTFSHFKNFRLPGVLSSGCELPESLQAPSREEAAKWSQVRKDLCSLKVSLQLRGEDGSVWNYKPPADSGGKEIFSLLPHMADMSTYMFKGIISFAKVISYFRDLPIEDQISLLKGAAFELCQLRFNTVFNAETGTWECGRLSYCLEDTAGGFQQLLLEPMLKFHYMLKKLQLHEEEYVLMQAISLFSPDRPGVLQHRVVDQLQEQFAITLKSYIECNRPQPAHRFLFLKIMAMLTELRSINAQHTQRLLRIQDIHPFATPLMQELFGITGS
Chain of F508del-CFTR (P13569 other isoform, or with tags, fused parts or gaps del F508-F508): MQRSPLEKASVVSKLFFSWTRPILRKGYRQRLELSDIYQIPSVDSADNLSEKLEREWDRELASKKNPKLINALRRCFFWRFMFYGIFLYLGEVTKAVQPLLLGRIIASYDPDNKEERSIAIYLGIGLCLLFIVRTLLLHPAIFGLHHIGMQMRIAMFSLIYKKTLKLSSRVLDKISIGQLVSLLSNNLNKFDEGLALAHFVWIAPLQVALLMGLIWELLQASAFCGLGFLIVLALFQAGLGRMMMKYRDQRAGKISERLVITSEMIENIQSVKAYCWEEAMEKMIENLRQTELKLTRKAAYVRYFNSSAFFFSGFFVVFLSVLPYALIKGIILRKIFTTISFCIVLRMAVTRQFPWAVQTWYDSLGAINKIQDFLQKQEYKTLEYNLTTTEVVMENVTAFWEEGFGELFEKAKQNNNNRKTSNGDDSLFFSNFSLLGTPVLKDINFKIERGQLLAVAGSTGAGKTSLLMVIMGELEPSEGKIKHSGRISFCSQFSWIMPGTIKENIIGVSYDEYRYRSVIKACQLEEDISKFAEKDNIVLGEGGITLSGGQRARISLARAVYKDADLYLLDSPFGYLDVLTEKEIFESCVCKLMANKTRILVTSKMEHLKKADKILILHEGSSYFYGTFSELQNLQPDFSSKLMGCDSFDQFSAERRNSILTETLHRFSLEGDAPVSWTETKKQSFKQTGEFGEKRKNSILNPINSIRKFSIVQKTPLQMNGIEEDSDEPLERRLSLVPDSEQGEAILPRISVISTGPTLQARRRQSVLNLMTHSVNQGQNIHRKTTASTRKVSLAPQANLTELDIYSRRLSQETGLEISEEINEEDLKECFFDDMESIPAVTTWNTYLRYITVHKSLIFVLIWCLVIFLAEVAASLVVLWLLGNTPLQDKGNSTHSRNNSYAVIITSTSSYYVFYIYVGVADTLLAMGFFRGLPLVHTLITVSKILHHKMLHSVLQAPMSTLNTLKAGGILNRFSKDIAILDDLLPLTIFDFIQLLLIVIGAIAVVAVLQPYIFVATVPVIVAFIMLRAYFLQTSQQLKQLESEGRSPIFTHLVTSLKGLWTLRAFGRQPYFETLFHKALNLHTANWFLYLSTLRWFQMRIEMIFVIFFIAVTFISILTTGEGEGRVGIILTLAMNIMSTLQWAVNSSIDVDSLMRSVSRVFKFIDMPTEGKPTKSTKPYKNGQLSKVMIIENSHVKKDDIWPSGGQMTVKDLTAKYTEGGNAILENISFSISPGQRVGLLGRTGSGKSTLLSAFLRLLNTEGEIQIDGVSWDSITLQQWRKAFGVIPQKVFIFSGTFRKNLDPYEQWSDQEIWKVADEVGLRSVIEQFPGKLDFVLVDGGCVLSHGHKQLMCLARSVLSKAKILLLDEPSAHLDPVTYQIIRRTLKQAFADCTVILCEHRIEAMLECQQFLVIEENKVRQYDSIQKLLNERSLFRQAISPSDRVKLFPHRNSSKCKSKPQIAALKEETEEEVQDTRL

For Cc1ccccc1S(=O)(=O)NC(=O)c1ccc(-n2ccc(OCC3C(C)(C)C3(C)C)n2)nc1N1C[C@@H](C)CC1(C)C [Compound 15, N-(o-Tolylsulfonyl)-6-[3-[(2,2,3,3-tetramethylcyclopropyl)methoxy]pyrazol-1-yl]-2-[(4S)-2,2,4-trimethylpyrrolidin-1-yl]pyridine-3-carboxamide], the “PXR Max Induction (% of rifampicin)” value (human PXR) was 0 % of rifampicin, the EC50 (F508del-CFTR; [1]) was under 100 nM and the EC50 (F508del-CFTR; [2]) was 20 nM.
For C[C@@H]1CN(c2nc(-n3ccc(OCC4CC4)n3)ccc2C(=O)NS(=O)(=O)c2cccnc2N)C(C)(C)C1 [Comp. D, reference compound], the “PXR Max Induction (% of rifampicin)” value (human PXR) was 20 % of rifampicin and the EC50 (F508del-CFTR; [2]) was 400 nM.
In the case of C[C@@H]1CN(c2nc(-n3ccc(O[C@H]4C[C@H]5CC[C@@H]4C5)n3)ccc2C(=O)NS(=O)(=O)c2ccccc2)C(C)(C)C1 [Comp. 39, N-(benzenesulfonyl)-6-[3-[(1R,2S,4S)-norbornan-2-yl]oxypyrazol-1-yl]-2-[(4S)-2,2,4-trimethylpyrrolidin-1-yl]pyridine-3-carboxamide], the “PXR Max Induction (% of rifampicin)” value (human PXR) is reported as 13 % of rifampicin, the EC50 (F508del-CFTR; [1]) is reported as under 100 nM and the EC50 (F508del-CFTR; [2]) is reported as 70 nM.
With Cc1cccc(S(=O)(=O)NC(=O)c2ccc(-n3ccc(OCC4(C(F)(F)F)CC4)n3)nc2N2C[C@@H](C)CC2(C)C)c1 [Comp. 28, N-(m-Tolylsulfonyl)-6-[3-[[1-(trifluoromethyl)cyclopropyl]methoxy]pyrazol-1-yl]-2-[(4S)-2,2,4-trimethylpyrrolidin-1-yl]pyridine-3-carboxamide] the “PXR Max Induction (% of rifampicin)” value (human PXR) was 17 % of rifampicin, the EC50 (F508del-CFTR; [1]) was under 100 nM and the EC50 (F508del-CFTR; [2]) was 30 nM.
For Cc1ccccc1S(=O)(=O)NC(=O)c1ccc(-n2ccc(OCCC3(C(F)(F)F)CC3)n2)nc1N1C[C@@H](C)CC1(C)C [Compound 4, N-(o-Tolylsulfonyl)-6-[3-[2-[1-(trifluoromethyl)cyclopropyl]ethoxy]pyrazol-1-yl]-2-[(4S)-2,2,4-trimethylpyrrolidin-1-yl]pyridine-3-carboxamide], the “PXR Max Induction (% of rifampicin)” value (human PXR) was 4 % of rifampicin, the EC50 (F508del-CFTR; [1]) was under 100 nM and the EC50 (F508del-CFTR; [2]) was 20 nM.
With C[C@@H]1CN(c2nc(-n3ccc(OCC(C)(C)C)n3)ccc2C(=O)NS(=O)(=O)c2ccc[nH]c2=O)C(C)(C)C1 [Comp. C, reference compound] the “PXR Max Induction (% of rifampicin)” value (human PXR) was 3 % of rifampicin.
With C[C@@H]1CN(c2nc(-n3ccc(OCCC4(C(F)(F)F)CC4)n3)ccc2C(=O)NS(=O)(=O)c2ccccc2Cl)C(C)(C)C1 [Comp. 43, N-(2-chlorophenyl) sulfonyl-6-[3-[2-[1-(trifluoromethyl)cyclopropyl]ethoxy]pyrazol-1-yl]-2-[(4S)-2,2,4-trimethylpyrrolidin-1-yl]pyridine-3-carboxamide] the “PXR Max Induction (% of rifampicin)” value (human PXR) was 12 % of rifampicin, the EC50 (F508del-CFTR; [1]) was under 100 nM and the EC50 (F508del-CFTR; [2]) was 50 nM.
With Cc1ccccc1S(=O)(=O)NC(=O)c1ccc(-n2ccc(OCC3(C(F)(F)F)CCC3)n2)nc1N1C[C@@H](C)CC1(C)C [Comp. 58, N-(o-Tolylsulfonyl)-6-[3-[[1-(trifluoromethyl)cyclobutyl]methoxy]pyrazol-1-yl]-2-[(4S)-2,2,4-trimethylpyrrolidin-1-yl]pyridine-3-carboxamide] the “PXR Max Induction (% of rifampicin)” value (human PXR) was 4 % of rifampicin, the EC50 (F508del-CFTR; [1]) was under 100 nM and the EC50 (F508del-CFTR; [2]) was 50 nM.
For C[C@@H]1CN(c2nc(-n3ccc(OCC4CCC4)n3)ccc2C(=O)NS(=O)(=O)c2cccnc2N)C(C)(C)C1 [Comp. E, reference compound], the “PXR Max Induction (% of rifampicin)” value (human PXR) was 10 % of rifampicin.
Molecule C[C@@H]1CN(c2nc(-n3ccc(OCCC4(C(F)(F)F)CC4)n3)ccc2C(=O)NS(=O)(=O)c2cccc(F)c2)C(C)(C)C1 [Compound 5, N-(3-Fluorophenyl)sulfonyl-6-[3-[2-[1-(trifluoromethyl)cyclopropyl]ethoxy]pyrazol-1-yl]-2-[(4S)-2,2,4-trimethylpyrrolidin-1-yl]pyridine-3-carboxamide] has a bioavailability (Rat IV and PO PK studies) of 50%, a clearance (Rat IV and PO PK studies) of 9.6 mL/min/kg and an AUC (Rat IV and PO PK studies) of 2700 ng·h/mL. It also gave an EC50 (F508del-CFTR; [1]) of under 100 nM and an EC50 (F508del-CFTR; [2]) of 50 nM.
In the case of C[C@@H]1CN(c2nc(-n3ccc(OCCC(C4CC4)C4CC4)n3)ccc2C(=O)NS(=O)(=O)c2ccccc2)C(C)(C)C1 [Comp. 42, N-(Benzenesulfonyl)-6-[3-(3,3-dicyclopropylpropoxy)pyrazol-1-yl]-2-[(4S)-2,2,4-trimethylpyrrolidin-1-yl]pyridine-3-carboxamide], the bioavailability (Rat IV and PO PK studies) is reported as 51%, the clearance (Rat IV and PO PK studies) is reported as 5.4 mL/min/kg and the AUC (Rat IV and PO PK studies) is reported as 4400 ng·h/mL. It also gave an EC50 (F508del-CFTR; [1]) of under 100 nM and an EC50 (F508del-CFTR; [2]) of 50 nM.
C[C@@H]1CN(c2nc(-n3ccc(OCC(C4CC4)C4CC4)n3)ccc2C(=O)NS(=O)(=O)c2ccccc2)C(C)(C)C1 [Comp. 41, N-(Benzenesulfonyl)-6-[3-(2,2-dicyclopropylethoxy)pyrazol-1-yl]-2-[(4S)-2,2,4-trimethylpyrrolidin-1-yl]pyridine-3-carboxamide] showed a bioavailability (Rat IV and PO PK studies) of 41%, a clearance (Rat IV and PO PK studies) of 1.9 mL/min/kg and an AUC (Rat IV and PO PK studies) of 6400 ng·h/mL.
With C[C@@H]1CN(c2nc(-n3ccc(OCC4(C(F)(F)F)CCC4)n3)ccc2C(=O)NS(=O)(=O)c2ccccc2)C(C)(C)C1 [Compound 10, N-(Benzenesulfonyl)-6-[3-[[1-(trifluoromethyl)cyclobutyl]methoxy]pyrazol-1-yl]-2-[(4S)-2,2,4-trimethylpyrrolidin-1-yl]pyridine-3-carboxamide] the bioavailability (Rat IV and PO PK studies) was 41%, the clearance (Rat IV and PO PK studies) was 11.2 mL/min/kg and the AUC (Rat IV and PO PK studies) was 2200 ng·h/mL. For the same molecule, the EC50 (F508del-CFTR; [1]) was under 100 nM and the EC50 (F508del-CFTR; [2]) was 40 nM.
Molecule C[C@@H]1CN(c2nc(-n3ccc(OCC4(C(F)(F)F)CC4)n3)ccc2C(=O)NS(=O)(=O)c2cccc(C#N)c2)C(C)(C)C1 [Compound 25, N-(3-Cyanophenyl)sulfonyl-6-[3-[[1-(trifluoromethyl)cyclopropyl]methoxy]pyrazol-1-yl]-2-[(4S)-2,2,4-trimethylpyrrolidin-1-yl]pyridine-3-carboxamide] has an EC50 (F508del-CFTR; [1]) of under 100 nM.
With C[C@@H]1CN(c2nc(-n3ccc(O[C@@H]4C[C@H]4C(F)(F)F)n3)ccc2C(=O)NS(=O)(=O)c2ccccc2)C(C)(C)C1 (racemic) [Compound 19, N-(Benzenesulfonyl)-6-[3-[(trans)-2-(trifluoromethyl)cyclopropoxy]pyrazol-1-yl]-2-[(4S)-2,2,4-trimethylpyrrolidin-1-yl]pyridine-3-carboxamide] the EC50 (F508del-CFTR; [1]) was 100 to 1000 nM.
With [2H]C([2H])(Oc1ccn(-c2ccc(C(=O)NS(=O)(=O)c3ccccc3)c(N3C[C@@H](C)CC3(C)C)n2)n1)C1C(C)(C)C1(C)C [Compound 36, N-(Benzenesulfonyl)-6-[3-[dideuterio-(2,2,3,3-tetramethylcyclopropyl)methoxy]pyrazol-1-yl]-2-[(4S)-2,2,4-trimethylpyrrolidin-1-yl]pyridine-3-carboxamide] the EC50 (F508del-CFTR; [1]) was under 100 nM.
For C[C@@H]1CN(c2nc(-n3ccc(OCC4(C(F)(F)F)CC4)n3)ccc2C(=O)NS(=N)(=O)c2ccccc2)C(C)(C)C1 (stereo partly drawn) [Compound 45, N-(amino(oxo)(phenyl)-λ^6-sulfaneylidene)-6-(3-((1-(trifluoromethyl)cyclopropyl)methoxy)-1H-pyrazol-1-yl)-2-((S)-2,2,4-trimethylpyrrolidin-1-yl)nicotinamide], the EC50 (F508del-CFTR; [1]) was 100 to 1000 nM.
Work on [2H]C([2H])([2H])[C@@H]1CN(c2nc(-n3ccc(OCCC4(C(F)(F)F)CC4)n3)ccc2C(=O)NS(=O)(=O)c2ccccc2)C(C)(C)C1([2H])[2H] [Compound 17, N-(Benzenesulfonyl)-2-[(4S)-3,3-dideuterio-2,2-dimethyl-4-(trideuteriomethyl)pyrrolidin-1-yl]-6-[3-[2-[1-(trifluoromethyl)cyclopropyl]ethoxy]pyrazol-1-yl]pyridine-3-carboxamide] yielded an EC50 (F508del-CFTR; [1]) of under 100 nM.
